One series relates to h676 GSCs. The experiment in a line: Sphere formation assay in patient-derived h676 GSCs. It counts as cell-based, human. The conditions noted are these: vs untreated controls. As to the method: (§1) FIG. 48. […] (A) Dose-response curves of the h676 GSCs treated 7 days with the indicated compounds. (B) Dose-response curves of the h543 GSCs treated 7 days with the indicated compounds. Data are represented as mean±SD.
(§2) Spheres were dissociated into single cells and seeded at a density of 50, 100, 200 and 400 cells/well in a 96 well plate. Neurosphere number was assessed after 7 days. Pictures were taken using Nikon Eclipse Ti-U microscope and neurosphere diameter was measured using NIS Elements BR software.
(§3) Given the promising results the present inventors obtained with the TRF1 chemical modulators in the U251 GBM cell line, the present inventors next set to address the effects of these compounds in two independent patient-derived primary GSCs (h543 and h676) cultures.
(§4) Next, the present inventors set to address whether the different compounds were able to block sphere formation in the h676 and h543 GSCs.

The next series deals with U251 cells. The experiment in a line: Neurosphere formation assay in U251 cells. It counts as cell-based, human. The note with it: U251 in NSC media; seven days; vs DMSO. As to the method: as §2
Finally, the present inventors checked if the three chemical compounds had the ability to reduce sternness in these cells. They cultured U251 cells with NSC media in order to obtain a suspension culture enriched in stem cells. The inventors performed a sphere formation assay with these cells treated with ETP-47228, ETP-47037 and ETP-50946 or DMSO for seven days. […] Of note, all these effects recapitulated what the present inventors observed with Trf1 genetic downregulation (See 2.2).

Series [1] relates to K-Ras^G12V-induced lung tumors. The note with it: p53-deficient background; cited from earlier work.
Series [2] can be described thus: Crossing of the brain blood barrier.
The next series deals with h543 GSCs. The experiment in a line: Sphere formation assay in patient-derived h543 GSCs. The note with it: vs untreated controls. Type of series: cell-based, human. As to the method: as §1, §2, §3, §4
The next series has as its system h543 GSCs xenografts. The experiment in a line: Subcutaneous xenograft of patient-derived h543 GSCs in nude mice. The note with it: oral 75 mg/kg 5 days/week, vs vehicle. It counts as in vivo. As to the method: (§5) h676 and h543 patient-derived GSCs were dissociated using a 200 μl pipet and resuspended in NeuroCult medium and matrigel in a 1:1 ratio in a concentration of 1000 cell/μl. Nude mice (athymic Nude-Foxn1^nu/nu from Harlan) were injected subcutaneously with 100 μl of the cell preparation. ETP-47037 (or vehicle) was orally administrated at a concentration of 75 mg/kg 5 days per week (see also section 8), starting one week after cell injection. The vehicle consisted in 10% N-methyl-2-pyrrolidone (NMP, Sigma Aldrich) and 90% poly ethylene glycol (PEG, Sigma Aldrich). Mice were weighted and tumors were measured every 2-4 days. Tumor area was determined by the following equation: A=π*(a/2)*(b/2), were a and b are tumor length and width respectively.
(§6) For oral administration, ETP-47037 was dissolved in 10% N-methyl-2-pyrrolidone (NMP, Sigma Aldrich) and 90% polyethylene glycol (PEG, Sigma Aldrich) at a concentration of 75 mg/kg.
(§7) Next, the present inventors set to address whether TRF1 chemical inhibition was able to block tumor growth in vivo. […] Thus, the two independent primary GSCs (h676 and h543) were injected subcutaneously into nude mice. […]

In series [3] the test system is TRF1. The series is described as follows: Western blot of total TRF1 protein in U251 cells. Type of series: cell-based, human. The note with it: 10 μM, 24 h or 48 hr. On the procedure:
Nuclear protein extracts were obtained using Nuclear Cytosolic Fractionation Kit (Biovision) and protein concentration was determined using the Bio-Rad DC Protein Assay (Bio-Rad). Up to 15 μg of protein per extract were separated in SDS-polyacrylamide gels by electrophoresis. After protein transfer onto nitrocellulose membrane (Whatman), the membranes were incubated with the indicated antibodies. Antibody binding was detected after incubation with a secondary antibody coupled to horseradish peroxidase using chemiluminescence with ECL detection KIT (GE Healthcare)
Quantifications: Protein-band intensities were measured with ImageJ software and normalized against the loading control.
(§8) For in vitro studies, ETP-47228 ETP-47037 and ETP-50946 were dissolved in DMSO at a final concentration of 10 or 5 mM. Cells were treated at a concentration of 10 μM for 24 h or 48 hr.
(§9) To address whether these small molecules could represent a new therapeutic strategy for the treatment of GBM, the present inventors first tested the ability of the three independent TRF1 inhibitory molecules (ETP-47228, ETP-47037 and ETP-50946) to downregulate TRF1 protein levels in the U251 human GBM cell line.

The nature of series [4]: Sickness, morbidity and pathologies of xenograft mice after long-term treatment. Type of series: in vivo. On the procedure: as §5
Histopathological analysis was performed in paraffin embedded tissue sections stained with hematoxylin and eosin (H&E), with the assistance of the CNIO Histopathology Unit and Juana María Flores from the Universidad Complutense de Madrid (UCM).
as §7

Series [5] relates to TRF1. The experiment in a line: TRF1 nuclear immunofluorescence (TRF1 foci) in U251 cells. The conditions noted are these: 10 μM, 24 h or 48 hr. Type of series: cell-based, human. On the procedure:
For immunofluorescence analyses, cells were plated in a proper density in cell culture μCLEAR plates (Greiner) and fixed in 4% formaldehyde in PBS. Cells were permeabilized with 0.25% Triton in PBS and blocked with 5% BSA in PBS. Tissue sections were fixed in 10% buffered formalin (Sigma) and embedded in paraffin. After deparaffinization and citrate antigen retrieval, sections were permeabilized with 0.5% Triton in PBS and blocked with 1% BSA and 10% Australian FBS ([…]) in PBS. The antibodies were applied overnight in antibody diluents with background reducing agents (Invitrogen).
Immunofluorescence images were obtained using a confocal ultraspectral microscope (Leica TCS-SP5) or the Opera High Content Screening (HCS) system (Perkin Elmer). Quantifications were performed with Definiens software.
as §8, §9

A further series has as its system h676 GSCs xenografts. The series is described as follows: Subcutaneous xenograft of patient-derived h676 GSCs in nude mice. Type of series: in vivo. On the procedure:
as §5, §6
Next, the present inventors set to address whether TRF1 chemical inhibition was able to block tumor growth in vivo. […] Thus, the two independent primary GSCs (h676 and h543) were injected subcutaneously into nude mice. One week after GSC injection, mice received oral administration of the vehicle (NMP 10%, PEG 90%) as placebo or the ETP-47037 TRF1 inhibitor 5 days/week, every week until human endpoint, and tumors were continuously followed-up by caliper measurements (FIG. 42A).

The mark [6] stands for this setting: GSC-derived xenografts, vs vehicle.

This is an account of results in patent US20220054496A1, “MODULATION OF TRF1 FOR BRAIN CANCER TREATMENT” (Fundación Del Sector Público Estatal Centro Nacional De …, priority 2018, published 2022).

Entries after “also recorded” stand apart in the source; their conditions may differ.

On to `CS(=O)(=O)N1CCN(Cc2cc3c(N4CCOCC4)nc(-c4cnc(N)nc4)cn3n2)CC1` [ETP-47037], for which, in the series on h676 GSCs, the diameter of spheres entry is recorded as “significant drastic reduction” and the number of spheres result is listed as “significant drastic reduction”. Moreover, in the series with U251 cells, the diameter of neurospheres entry is “strong reduction” and the number of neurospheres result is reported as “strong reduction”. Also, the “growth of already established lung adenocarcinomas” value in series [1] is given as “effectively impair the growth”. Also, the “crossing the brain blood barrier” value in series [2] was “not crossing the brain blood barrier”. For the same compound, in the series on h543 GSCs, the diameter of spheres entry is “significant drastic reduction” and the number of spheres result is listed as “significant drastic reduction”. For the same compound, the “tumor areas (caliper follow-up)” value in the series on h543 GSCs xenografts is given as “drastic reduction”. Further, in the series on TRF1 [3], the “total TRF1 protein levels (western blot)” value is “effectively reduced”. The “Mice pathologies after long-term treatment” value in [4] (one line per mouse (Mice 1-4)) is on record as “Mice 3: dermatitis; also recorded: Mice 4: dermatitis; also recorded: Mice 2: dermatitis”. Moreover, in [4] (treated cohorts compared to the placebo group), the “signs of sickness or morbidity” value is “did not detect any signs of sickness or morbidity”. In the series on TRF1 [5], the “TRF1 foci (immunofluorescence)” value is listed as “effectively reduced”. In the series on h676 GSCs xenografts (setting [6]), the “proliferation marker Ki67-positive cells in tumors” value was “reduces proliferation” and the “γH2AX DNA damage marker positive cells in tumors” value is “induces DNA damage”. Further, the “tumor areas (caliper follow-up)” value in the series with h676 GSCs xenografts (h676 xenograft, oral 75 mg/kg 5 days/week, vs vehicle) was “drastic reduction”. For the same compound, in the series on h676 GSCs xenografts (h676 xenograft, vs placebo), the “decrease of TRF1 protein levels in tumors (immunofluorescence)” value turned out to be 80%, the tumor size post-mortem entry is “striking decrease” and the tumor weight post-mortem entry is “striking decrease”. Further, the “histological analysis of the tumors” value with h676 GSCs xenografts (xenografts after treatment) is “decreased cellularity in the tumors, together with necrotic areas, apoptotic bodies, compacted chromatin and fragmented DNA”.

Take `Cc1cnc2c(N3CCOCC3)nc(-c3ccc(NC(=O)Nc4ccc(C(=O)N5CCN(C)CC5)cc4)cc3)cn12` [ETP-47228]: in the series with h676 GSCs, the diameter of spheres entry was “significant drastic reduction” and the number of spheres entry was “significant drastic reduction”. In the series on U251 cells, the diameter of neurospheres result was “strong reduction” and the number of neurospheres result is “strong reduction”. In addition, the “growth of already established lung adenocarcinomas” value in series [1] is recorded as “effectively impair the growth”. In addition, in the series with h543 GSCs, the diameter of spheres result was “significant drastic reduction” and the number of spheres entry is “significant drastic reduction”. For the same compound, the “total TRF1 protein levels (western blot)” value in the series on TRF1 [3] is given as “effectively reduced”. Besides, in the series on TRF1 [5], the “TRF1 foci (immunofluorescence)” value is reported as “effectively reduced”.
